According to patent EP2871962B1, “WOOD PROTECTION AGAINST MICROORGANISMS BY LACCASE-CATALYSED IODINATION” (EMPA Eidgenössische Materialprüfungs- und Forschungsanstalt, priority 2012, dated 2013):
Several values for one entry are separate records, joined by “and”; a condition that tells them apart may be missing. Equal entries are not always repeated.

Key:
[1] = test system: S. aureus; assay: Biotests 1: stamping test of treated, leached wood on agar; type: cell-based, Staphylococcus aureus (ATCC 6583); settings: wood batch 1 exposed to leaching; 18h contact; mean of grades 0-4 ±SE, n = 3; Mediator = ABTS (10 µM)
Description: (§1) Wood specimens (batch 1: 10 x 10 x 5 mm, length x width x height used in the biotests 1 and batch 2: 20 x 15 x 10 mm used in the biotests 2), free of defects, were extracted longitudinally from boards of Norway spruce trees grown in Switzerland, in order to minimize the influence of natural variability. All specimens were conditioned at 23C°(±1°C) and 50% (±5%) relative humidity (RH) until they reached an equilibrium moisture content of approximately 8-10%. Prior to the wood treatment the specimens were sterilized by autoclaving for 20min at 121°C(±1°C). […]
(§2) The evaluation of the antimicrobial activity against the bacteria E. coli and S. aureus and the yeast S. cerevisiae of the iodinated and polymerised wood was performed in biotests 1. […] Growth on agar plates was visually determined after incubation for 20-28h at the optimal temperature, giving the following growth values: 0 = no growth; 1 = weak growth; 2 = intermediate growth; 3 = strong growth and 4 = stamping area completely overgrown.

[2] = test system: A. pullulans, C. picea, C. herbarum and D. pinicola; assay: Biotests 2: blue stain test of treated wood (EN 152-2, modified); type: cell-based; settings: 6 weeks of incubation, mean of stain categories 0-5 ±SE, n = 6, Mediator = ACS (50 µM); for Blue stain discoloration, Leached: wood batch 2, leached (EN 84)
Description: (§3) Wood specimens (batch 1: 10 x 10 x 5 mm, length x width x height used in the biotests 1 and batch 2: 20 x 15 x 10 mm used in the biotests 2), free of defects, were extracted longitudinally from boards of Norway spruce trees grown in Switzerland, in order to minimize the influence of natural variability. All specimens were conditioned at 23C°(±1°C) and 50% (±5%) relative humidity (RH) until they reached an equilibrium moisture content of approximately 8-10%. Prior to the wood treatment the specimens were sterilized by autoclaving for 20min at 121°C(±1°C).
The enzymatic wood iodination and polymerisation were carried out by dipping three wood specimens of batch 1 in 30ml or 12 wood specimens of batch 2 in 200ml reaction solution (pH 4-6) containing one of the phenolic compounds (4mM), or potassium iodide (1 or 50mM) in the presence of laccase ([…]) for 18h at room temperature. Furthermore, to test the suitability of HBA (5mM) as mediator some additional experiments were performed. The chemical preservative VP 7/ 260a containing IPBC and propiconazole as active agents was used as a benchmark with a final concentration of 5% (v/v). The wood specimens were treated and used in the biological tests, with the following modifications: • Control = Wood treated with buffer • L = Wood treated with laccase alone • L-M = Wood treated with laccase and mediator • Iso = Wood treated with isoeugenol • Iso-L = Wood treated with isoeugenol and laccase • Iso-L-M = Wood treated with isoeugenol, laccase and mediator • Thy = Wood treated with thymol • Thy-L = Wood treated with thymol and laccase • Thy-L-M = Wood treated with thymol and laccase and mediator • Ix = Wood treated with 1 or 50mM iodide (x = concentration of iodide) • Ix-L = Wood treated with 1 or 50mM iodide and laccase • Ix-L-M = Wood treated with 1 or 50mM iodide, laccase and mediator • VP7 = Wood treated with VP 7/ 260a (IPBC and propiconazole)
After the reaction all wood specimens of batch 1 had undergone a leaching procedure comprising five cycles of incubation in ddH2O (liquid volume min. 10 times the specimen volume, 100rpm, room temperature, 24h) and water exchange. Half of the wood specimens of batch 2 were exposed to leaching for two weeks including nine steps of water changing according to EN 84 (29), the other half was used without leaching in biotests.
The resistance of the treated wood against blue stain and wood decay fungi was determined in biotests 2 according to the European standards EN 152-2 (30) and EN 113 (31) with slight modifications. The EN 152 is a classical test for blue staining, originally intended to determine the effectiveness of a preservative treatment against blue stain in service. The treated wood samples were dipped into a spore suspension of A. pullulans, C. picea, C. herbarum and D. pinicola (cfu: > 10^5) and placed horizontally in a Kolle flask containing vermiculite (18g) which was inoculated additionally with 40ml of the spore suspension. The incubated specimens were stored in an incubation room at 22°C and 70% RH (6 weeks). After incubation the surface was evaluated by classifying the percentage of blue-stain discolouration from 0 to 5 according to Thwaites et al. (32) (Table 1). Table 1: Determination of the blue stain discoloration

[3] = test system: S. cerevisiae; assay: Biotests 1: stamping test of treated, leached wood on agar; type: cell-based, Saccharomyces cerevisiae A.C. van Wijk (DSM 70449); settings: wood batch 1 exposed to leaching; 18h contact; mean of grades 0-4 ±SE, n = 3; Mediator = ABTS (10 µM)
Description: as §1, §2

[4] = test system: E. coli; assay: as above; type: cell-based, Escherichia coli (ATCC 11229); settings: wood batch 1 exposed to leaching; 18h contact; mean of grades 0-4 ±SE, n = 3; Mediator = ABTS (10 µM)
Description: as §1, §2

[5] = test system: O. placenta; assay: Biotests 2: mini-wood block decay test (comparable with EN 113), mass loss; type: cell-based, Oligoporus placenta; settings: wood batch 2, non-leached and leached, 12 weeks incubation; numbers only in Figure 2
Description: as §3
(§4) The enzymatic wood iodination and polymerisation were carried out by dipping three wood specimens of batch 1 in 30ml or 12 wood specimens of batch 2 in 200ml reaction solution (pH 4-6) containing one of the phenolic compounds (4mM), or potassium iodide (1 or 50mM) in the presence of laccase (10U ml^-1) and either 10µM ABTS for batch 1 or 100µM ACS for batch 2 under shaking (100rpm) for 18h at room temperature. […]
(§5) The treated wood was aseptically added to fully colonised Petri dishes (135mm diameter, 2% malt extract agar (MEA)) by O. placenta and T. versicolor respectively and incubated at 22C° and 70% RH. The ability of the wood-decay fungi to degrade the wood was determined gravimetrically after incubation periods of 6 and 12 weeks and expressed as mass loss (%) according to EN 113 (31): Mass loss(%) = (m0 −m1)/(m0)⋅100 [formula] […]

[6] = test system: D. pinicola; assay: Growth inhibition on supplemented malt extract agar plates (Example 1); type: cell-based, Discula pinicola; settings: 2% MEA; phenolic derivatives 4mM, VP 7/ 260a 5% (v/v); without wood; ±SE, n = 3
Description: (§6) In addition to the mentioned biotests 2 the antimicrobial activity of the reaction derivatives without wood was evaluated on agar plates (5), excluding the laccase-catalysed iodine solution. It was assumed that the iodine molecules would react with starch from malt to form polyiodide chains, which would prevent the antimicrobial effect (33). The laccase catalysis of the phenols was performed under shaking for 18h at room temperature as described above and the phenolic derivatives were added to 2% MEA after autoclaving to a final concentration of 4mM. The fungicide VP 7/ 260a were added to a concentration of 5% (v/v). The supplemented Petri dishes were inoculated in the centre with a mycelium agar disc (5mm diameter) taken from the sub-margin of 14 day old cultures of the ascomycetes A. pullulans and D. pinicola and the basidiomycetes O. placenta and T. versicolor. The fungal growth was estimated by measuring the colony diameter and the growth inhibition was expressed as % of reference grown on non-supplemented malt agar.

[7] = test system: A. alternata; assay: as above; type: cell-based; settings: 2% MEA; phenolic derivatives 4mM, VP 7/ 260a 5% (v/v); without wood; ±SE, n = 3
[8] = test system: T. versicolor; assay: Biotests 2: mini-wood block decay test (comparable with EN 113), mass loss; type: cell-based, Trametes versicolor; settings: wood batch 2, non-leached and leached, 12 weeks incubation; numbers only in Figure 2
Description: as §3, §4, §5

[9] = test system: O. placenta; assay: Growth inhibition on supplemented malt extract agar plates (Example 1); type: cell-based, Oligoporus placenta; settings: 2% MEA; phenolic derivatives 4mM, VP 7/ 260a 5% (v/v); without wood; ±SE, n = 3
Description: as §6

[10] = test system: T. versicolor; assay: as above; type: cell-based, Trametes versicolor; settings: 2% MEA; phenolic derivatives 4mM, VP 7/ 260a 5% (v/v); without wood; ±SE, n = 3
Description: as §6

Structure (SMILES): [I-].[K+] [I50, potassium iodide]
- Growth values after stamping, S. aureus [1]: 3.0 ±0.6
- Blue stain discoloration, Leached [2]: 3.3 ±0.3
- Blue stain discoloration, Non-leached ([2]; wood batch 2, non-leached): 0.8 ±0.4
- Growth values after stamping, S. cerevisiae [3]: 2.7 ±0.3
- Growth values after stamping, E. coli [4]: 4.0 ±0.0

Structure (SMILES): CC=Cc1ccc(O)c(OC)c1 [Iso, isoeugenol]
- mass loss of wood caused by O. placenta (result in words) [5]: minor effect
- Growth inhibition [%] on agar plate compared to control, D. pinicola [6]: 100 ±0.0%
- Growth inhibition [%] on agar plate compared to control, A. alternata [7]: 100 ±0.0%
- Blue stain discoloration, Leached [2]: 3.4 and 3.4 ±0.5
- mass loss of wood caused by T. versicolor (result in words) [8]: minor effect
- Growth inhibition [%] on agar plate compared to control, O. placenta [9]: 100 ±0.0%
- Growth values after stamping, E. coli [4]: 4.0 and 4.0 ±0.0
- Growth inhibition [%] on agar plate compared to control, T. versicolor [10]: 100 ±0.0%
